Reference: article PMC3287420 (Nature chemical biology, 2011)
Blank lines part the entries; values can stand above or below the molecule they belong to.

How the values were obtained:
[1] = biological target: T1, GST-LRRK2 [A2016T] (1326-2517) (Homo sapiens, UniProt Q5S007, A2016T); details: cited from earlier work
T1 sequence (Q5S007 1326-2527 A2016T): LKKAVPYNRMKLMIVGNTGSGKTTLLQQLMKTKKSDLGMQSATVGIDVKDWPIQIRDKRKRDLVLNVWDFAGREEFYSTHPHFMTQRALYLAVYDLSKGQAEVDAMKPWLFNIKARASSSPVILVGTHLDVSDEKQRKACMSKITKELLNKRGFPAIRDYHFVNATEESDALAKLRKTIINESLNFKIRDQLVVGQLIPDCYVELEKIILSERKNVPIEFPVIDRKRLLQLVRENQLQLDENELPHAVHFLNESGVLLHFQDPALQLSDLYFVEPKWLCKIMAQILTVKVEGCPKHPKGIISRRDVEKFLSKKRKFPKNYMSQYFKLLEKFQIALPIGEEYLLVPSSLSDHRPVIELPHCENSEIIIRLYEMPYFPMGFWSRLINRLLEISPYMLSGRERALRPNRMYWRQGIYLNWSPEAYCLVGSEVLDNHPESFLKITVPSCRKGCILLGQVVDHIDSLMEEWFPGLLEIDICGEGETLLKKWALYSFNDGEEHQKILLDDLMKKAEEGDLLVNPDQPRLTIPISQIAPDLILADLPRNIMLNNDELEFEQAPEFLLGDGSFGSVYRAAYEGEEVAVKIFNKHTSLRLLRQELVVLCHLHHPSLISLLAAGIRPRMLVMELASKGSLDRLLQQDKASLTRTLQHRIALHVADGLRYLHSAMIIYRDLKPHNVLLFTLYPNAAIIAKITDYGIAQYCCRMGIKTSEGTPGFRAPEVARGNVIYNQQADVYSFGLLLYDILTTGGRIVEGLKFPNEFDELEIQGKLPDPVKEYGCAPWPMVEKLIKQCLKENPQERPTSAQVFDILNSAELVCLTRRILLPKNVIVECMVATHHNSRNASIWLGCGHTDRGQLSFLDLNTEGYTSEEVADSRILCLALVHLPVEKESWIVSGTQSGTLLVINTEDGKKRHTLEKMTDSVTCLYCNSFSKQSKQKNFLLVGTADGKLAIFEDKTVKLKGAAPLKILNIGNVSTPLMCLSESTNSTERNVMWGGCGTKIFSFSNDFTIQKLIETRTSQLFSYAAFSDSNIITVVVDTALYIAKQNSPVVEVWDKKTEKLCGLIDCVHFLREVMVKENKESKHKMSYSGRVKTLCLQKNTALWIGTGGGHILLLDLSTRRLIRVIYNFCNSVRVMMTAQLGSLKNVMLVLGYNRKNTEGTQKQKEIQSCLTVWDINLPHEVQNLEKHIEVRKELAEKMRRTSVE

[2] = system: DCLK1; test: KiNativ; type: binding; details: hPBMC and mouse brain tissue profiling
[3] = system: LRRK2; type: binding; details: hPBMC and mouse brain tissue profiling
[4] = biological target: MAPK7 (Homo sapiens, UniProt Q13164); test: KiNativ; type: binding; details: hPBMC and mouse brain tissue profiling
Chain of MAPK7 (Q13164 whole entry): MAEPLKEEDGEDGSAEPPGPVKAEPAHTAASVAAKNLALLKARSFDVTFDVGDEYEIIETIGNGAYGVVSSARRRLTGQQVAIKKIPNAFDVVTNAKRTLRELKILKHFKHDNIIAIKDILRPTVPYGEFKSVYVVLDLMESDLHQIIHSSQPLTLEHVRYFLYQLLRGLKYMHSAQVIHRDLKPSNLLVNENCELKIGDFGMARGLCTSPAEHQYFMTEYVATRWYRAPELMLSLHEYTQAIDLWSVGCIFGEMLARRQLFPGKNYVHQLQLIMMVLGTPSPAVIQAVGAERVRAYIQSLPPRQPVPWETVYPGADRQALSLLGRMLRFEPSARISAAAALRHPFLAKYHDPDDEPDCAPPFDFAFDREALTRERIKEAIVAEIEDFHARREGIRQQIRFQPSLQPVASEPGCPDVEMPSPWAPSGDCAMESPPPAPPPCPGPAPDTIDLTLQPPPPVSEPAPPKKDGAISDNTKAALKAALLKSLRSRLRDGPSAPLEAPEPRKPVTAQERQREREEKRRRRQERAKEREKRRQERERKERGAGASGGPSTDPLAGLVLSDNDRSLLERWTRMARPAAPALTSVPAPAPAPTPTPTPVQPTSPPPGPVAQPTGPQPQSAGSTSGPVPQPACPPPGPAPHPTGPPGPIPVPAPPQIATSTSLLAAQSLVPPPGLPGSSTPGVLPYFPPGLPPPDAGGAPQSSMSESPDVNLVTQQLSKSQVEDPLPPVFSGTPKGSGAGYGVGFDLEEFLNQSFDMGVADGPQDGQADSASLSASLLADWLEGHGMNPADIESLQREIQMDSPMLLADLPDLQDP

[5] = biological target: T2, CHEK2 (Homo sapiens, UniProt O96017); test: KiNativ; type: binding
Target sequence in this assay (O96017 whole entry): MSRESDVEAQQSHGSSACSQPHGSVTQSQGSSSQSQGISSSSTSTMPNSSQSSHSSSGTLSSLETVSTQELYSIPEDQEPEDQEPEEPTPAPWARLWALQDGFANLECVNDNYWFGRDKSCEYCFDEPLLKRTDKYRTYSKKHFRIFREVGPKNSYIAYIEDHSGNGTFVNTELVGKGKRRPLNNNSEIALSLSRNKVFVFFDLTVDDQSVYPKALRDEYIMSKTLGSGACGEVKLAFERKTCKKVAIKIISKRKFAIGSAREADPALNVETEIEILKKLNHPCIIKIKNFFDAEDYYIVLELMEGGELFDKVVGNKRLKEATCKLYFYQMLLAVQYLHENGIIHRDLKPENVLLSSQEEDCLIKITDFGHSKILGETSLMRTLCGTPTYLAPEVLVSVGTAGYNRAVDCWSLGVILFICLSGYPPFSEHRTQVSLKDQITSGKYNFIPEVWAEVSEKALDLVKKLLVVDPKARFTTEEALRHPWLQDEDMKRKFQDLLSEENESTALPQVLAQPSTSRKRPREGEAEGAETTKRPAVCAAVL

[6] = biological target: AURKB (Homo sapiens, UniProt Q96GD4); test: Invitrogen SelectScreen biochemical assay
Chain of AURKB (Q96GD4 whole entry, species assumed): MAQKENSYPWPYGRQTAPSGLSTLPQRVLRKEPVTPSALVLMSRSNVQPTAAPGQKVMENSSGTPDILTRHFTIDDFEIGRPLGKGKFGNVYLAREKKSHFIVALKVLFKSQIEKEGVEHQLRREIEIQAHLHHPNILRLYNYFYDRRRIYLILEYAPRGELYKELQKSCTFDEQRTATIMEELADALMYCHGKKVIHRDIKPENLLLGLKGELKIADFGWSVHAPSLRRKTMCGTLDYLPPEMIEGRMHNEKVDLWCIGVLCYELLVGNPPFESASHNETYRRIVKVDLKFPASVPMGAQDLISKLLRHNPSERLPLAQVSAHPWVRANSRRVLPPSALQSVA

[7] = biological target: T2, CHEK2; test: Invitrogen SelectScreen biochemical assay
Target sequence in this assay (O96017 whole entry, species assumed): as the sequence (O96017 whole entry) above

[8] = biological target: T3, DCLK2 (Homo sapiens, UniProt Q8N568); test: Invitrogen SelectScreen biochemical assay
T3 sequence (Q8N568 1-766): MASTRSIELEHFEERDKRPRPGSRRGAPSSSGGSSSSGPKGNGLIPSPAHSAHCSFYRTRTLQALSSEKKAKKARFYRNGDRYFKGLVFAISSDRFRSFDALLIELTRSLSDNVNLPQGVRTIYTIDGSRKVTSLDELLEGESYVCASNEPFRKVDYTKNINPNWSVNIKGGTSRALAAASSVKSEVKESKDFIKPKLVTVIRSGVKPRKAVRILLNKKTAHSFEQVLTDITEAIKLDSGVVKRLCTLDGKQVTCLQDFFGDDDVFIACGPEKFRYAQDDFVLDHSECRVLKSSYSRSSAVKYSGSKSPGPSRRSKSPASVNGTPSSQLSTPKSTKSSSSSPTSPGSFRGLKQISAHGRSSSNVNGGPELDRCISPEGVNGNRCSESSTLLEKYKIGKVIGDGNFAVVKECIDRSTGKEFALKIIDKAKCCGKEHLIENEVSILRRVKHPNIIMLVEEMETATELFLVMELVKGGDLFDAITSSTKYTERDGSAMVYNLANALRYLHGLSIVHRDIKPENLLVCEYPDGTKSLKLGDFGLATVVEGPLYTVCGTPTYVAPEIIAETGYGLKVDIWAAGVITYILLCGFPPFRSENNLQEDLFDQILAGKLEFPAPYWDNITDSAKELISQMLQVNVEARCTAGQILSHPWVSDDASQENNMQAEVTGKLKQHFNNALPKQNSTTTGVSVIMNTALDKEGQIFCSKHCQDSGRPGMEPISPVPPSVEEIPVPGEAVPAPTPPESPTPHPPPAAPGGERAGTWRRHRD

[9] = biological target: MKNK2 (Homo sapiens, UniProt Q9HBH9); test: Invitrogen SelectScreen biochemical assay
Chain of MKNK2 (Q9HBH9 whole entry, species assumed): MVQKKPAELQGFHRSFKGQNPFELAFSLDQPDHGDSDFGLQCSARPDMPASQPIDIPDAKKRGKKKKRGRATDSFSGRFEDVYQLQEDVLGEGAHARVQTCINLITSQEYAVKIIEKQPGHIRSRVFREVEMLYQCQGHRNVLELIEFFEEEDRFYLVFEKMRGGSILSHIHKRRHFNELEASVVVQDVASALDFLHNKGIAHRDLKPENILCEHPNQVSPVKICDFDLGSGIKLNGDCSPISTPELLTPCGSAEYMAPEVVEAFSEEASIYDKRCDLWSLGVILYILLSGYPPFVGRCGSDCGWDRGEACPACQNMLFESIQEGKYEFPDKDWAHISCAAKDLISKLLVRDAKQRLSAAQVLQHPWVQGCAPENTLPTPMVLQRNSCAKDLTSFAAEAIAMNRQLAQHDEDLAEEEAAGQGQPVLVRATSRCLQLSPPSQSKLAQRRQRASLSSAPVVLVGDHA

[10] = biological target: MYLK (Homo sapiens, UniProt Q15746); test: Invitrogen SelectScreen biochemical assay
Chain of MYLK (Q15746 whole entry, species assumed): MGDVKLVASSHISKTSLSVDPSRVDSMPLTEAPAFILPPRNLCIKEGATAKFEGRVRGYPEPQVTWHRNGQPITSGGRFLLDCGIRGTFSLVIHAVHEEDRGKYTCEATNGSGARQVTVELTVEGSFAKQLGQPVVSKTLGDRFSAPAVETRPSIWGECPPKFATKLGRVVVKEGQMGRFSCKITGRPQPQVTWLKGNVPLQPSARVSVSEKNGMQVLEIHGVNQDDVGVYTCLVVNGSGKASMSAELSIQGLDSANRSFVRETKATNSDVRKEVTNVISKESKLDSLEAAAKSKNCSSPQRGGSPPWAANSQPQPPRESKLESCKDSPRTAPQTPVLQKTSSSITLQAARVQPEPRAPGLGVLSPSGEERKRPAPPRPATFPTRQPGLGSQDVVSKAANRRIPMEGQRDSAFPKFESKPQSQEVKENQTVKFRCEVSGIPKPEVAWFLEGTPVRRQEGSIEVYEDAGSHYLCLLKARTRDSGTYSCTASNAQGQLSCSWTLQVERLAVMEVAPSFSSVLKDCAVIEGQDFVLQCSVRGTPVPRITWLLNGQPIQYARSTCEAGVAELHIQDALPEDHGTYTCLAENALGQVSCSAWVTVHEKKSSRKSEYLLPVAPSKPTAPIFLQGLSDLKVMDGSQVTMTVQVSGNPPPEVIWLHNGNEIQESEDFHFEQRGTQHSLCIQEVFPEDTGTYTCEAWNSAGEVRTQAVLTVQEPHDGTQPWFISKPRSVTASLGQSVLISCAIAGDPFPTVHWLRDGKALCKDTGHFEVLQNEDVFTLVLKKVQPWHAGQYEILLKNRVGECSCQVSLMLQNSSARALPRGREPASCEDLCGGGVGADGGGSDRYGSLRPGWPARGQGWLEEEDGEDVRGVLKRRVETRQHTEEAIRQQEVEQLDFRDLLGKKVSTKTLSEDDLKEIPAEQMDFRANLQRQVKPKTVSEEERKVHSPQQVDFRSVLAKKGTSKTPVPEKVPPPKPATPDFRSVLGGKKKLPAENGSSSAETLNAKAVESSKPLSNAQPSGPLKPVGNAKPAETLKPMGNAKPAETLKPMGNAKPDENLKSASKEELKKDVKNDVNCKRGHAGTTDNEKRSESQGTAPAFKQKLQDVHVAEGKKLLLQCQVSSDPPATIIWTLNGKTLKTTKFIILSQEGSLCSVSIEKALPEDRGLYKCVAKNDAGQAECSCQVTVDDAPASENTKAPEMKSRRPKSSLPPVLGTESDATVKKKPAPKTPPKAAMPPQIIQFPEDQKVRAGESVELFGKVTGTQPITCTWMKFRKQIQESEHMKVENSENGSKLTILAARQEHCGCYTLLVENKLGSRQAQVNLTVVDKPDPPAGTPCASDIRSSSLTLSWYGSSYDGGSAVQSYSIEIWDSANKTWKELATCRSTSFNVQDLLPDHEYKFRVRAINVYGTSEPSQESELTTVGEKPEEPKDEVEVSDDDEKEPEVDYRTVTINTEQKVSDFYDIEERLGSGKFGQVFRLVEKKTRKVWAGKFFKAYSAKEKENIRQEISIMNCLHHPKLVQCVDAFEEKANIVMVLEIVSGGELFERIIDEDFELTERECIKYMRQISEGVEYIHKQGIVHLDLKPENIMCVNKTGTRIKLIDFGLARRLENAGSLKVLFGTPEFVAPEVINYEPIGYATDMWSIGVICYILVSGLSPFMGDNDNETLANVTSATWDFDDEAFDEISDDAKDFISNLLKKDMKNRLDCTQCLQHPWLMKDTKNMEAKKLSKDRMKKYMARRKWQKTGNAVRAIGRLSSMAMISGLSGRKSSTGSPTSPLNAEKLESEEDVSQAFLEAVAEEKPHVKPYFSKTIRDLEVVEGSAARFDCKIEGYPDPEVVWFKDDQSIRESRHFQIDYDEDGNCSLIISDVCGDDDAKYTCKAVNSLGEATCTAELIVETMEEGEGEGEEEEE

[11] = biological target: T4, NUAK1 (Homo sapiens, UniProt O60285); test: Invitrogen SelectScreen biochemical assay
T4 sequence (O60285 1-661): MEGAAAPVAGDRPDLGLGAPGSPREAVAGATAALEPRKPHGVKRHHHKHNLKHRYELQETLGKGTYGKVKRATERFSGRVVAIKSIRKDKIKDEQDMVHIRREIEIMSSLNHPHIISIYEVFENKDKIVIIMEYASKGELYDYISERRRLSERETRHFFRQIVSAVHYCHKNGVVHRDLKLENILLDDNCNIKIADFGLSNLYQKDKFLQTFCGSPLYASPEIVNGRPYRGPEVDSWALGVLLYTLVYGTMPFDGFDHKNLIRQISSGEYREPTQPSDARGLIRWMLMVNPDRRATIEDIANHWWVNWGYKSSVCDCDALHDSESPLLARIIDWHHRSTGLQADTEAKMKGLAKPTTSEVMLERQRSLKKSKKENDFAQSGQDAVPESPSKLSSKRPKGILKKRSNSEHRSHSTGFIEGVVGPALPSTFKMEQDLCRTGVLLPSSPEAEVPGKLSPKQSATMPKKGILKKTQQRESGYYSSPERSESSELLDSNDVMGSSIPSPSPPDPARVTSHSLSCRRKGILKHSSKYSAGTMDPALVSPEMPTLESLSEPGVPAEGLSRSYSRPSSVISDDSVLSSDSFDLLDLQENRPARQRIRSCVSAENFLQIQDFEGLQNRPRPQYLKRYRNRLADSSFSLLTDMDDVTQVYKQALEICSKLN

[12] = biological target: PLK1 (Homo sapiens, UniProt P53350); test: Invitrogen SelectScreen biochemical assay
Chain of PLK1 (P53350 whole entry): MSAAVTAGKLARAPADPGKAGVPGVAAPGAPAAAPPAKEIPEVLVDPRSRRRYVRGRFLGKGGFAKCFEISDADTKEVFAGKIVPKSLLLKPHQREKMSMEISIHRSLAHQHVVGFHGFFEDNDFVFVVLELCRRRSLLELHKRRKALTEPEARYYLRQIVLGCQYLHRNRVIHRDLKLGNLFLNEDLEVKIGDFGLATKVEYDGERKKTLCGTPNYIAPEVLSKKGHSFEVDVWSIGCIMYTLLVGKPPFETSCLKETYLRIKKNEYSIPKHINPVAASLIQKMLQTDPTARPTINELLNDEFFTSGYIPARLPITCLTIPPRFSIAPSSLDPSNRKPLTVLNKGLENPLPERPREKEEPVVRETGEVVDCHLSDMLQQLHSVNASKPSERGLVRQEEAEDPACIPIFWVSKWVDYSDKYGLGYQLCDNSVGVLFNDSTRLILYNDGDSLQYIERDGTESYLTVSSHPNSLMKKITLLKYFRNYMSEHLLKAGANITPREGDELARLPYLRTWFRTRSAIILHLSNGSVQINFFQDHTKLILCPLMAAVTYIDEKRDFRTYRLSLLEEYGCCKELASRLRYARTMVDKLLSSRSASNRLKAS

[13] = system: kinase inactive LRRK2 {D2017A]; type: cell-based; details: 1 µM, 2 h
[14] = Pharmacokinetics in mice; type: in vivo; details: mouse, plasma, po, 10 mg/kg
[15] = system: GFP-LRRK2; test: Fluorescence microscopy of LRRK2 localisation, HEK 293 stable cells; type: cell-based; details: 1 µM, 2 h time course
[16] = system: GFP-LRRK2 [A2016T]; test: as above; type: cell-based; details: 1 µM, 2 h time course
[17] = system: GFP-LRRK2[A2016T+G2019S]; test: as above; type: cell-based; details: 1 µM, 2 h time course
[18] = system: GFP-LRRK1; test: Fluorescence microscopy of LRRK1 localisation, HEK 293 stable cells; type: cell-based; details: 1 µM, 2 hours
[19] = system: GFP-LRRK2 [A2016T]
[20] = system: GFP-LRRK2[A2016T+G2019S]
[21] = system: endogenous LRRK2; details: mice, 100 mg/kg intraperitoneal, 1 h and 2 h time points

Structure (SMILES): Cc1cncc2cccc(S(=O)(=O)N3CCCNC[C@@H]3C)c12 [H-1152]
fold less sensitive to inhibitor [1]: 32 fold

inhibition in KiNativ profiling [4]: confirmed inhibition | IC50 [5]: > 1000 nM | IC50 [6]: > 1000 nM | IC50 [7]: > 1000 nM | IC50 [8]: 45 nM | IC50 [9]: > 1000 nM | IC50 [10]: > 1000 nM | IC50 [11]: > 1000 nM | IC50 [12]: > 1000 nM | AUC(0-inf) [14]: 14800 ng·h/mL | bioavailability [14]: 49.3%
Structure (SMILES): COc1cc(C(=O)N2CCC(N3CCN(C)CC3)CC2)ccc1Nc1ncc2c(n1)N(C)c1ccccc1C(=O)N2C [LRRK2-IN-1]
inhibition in KiNativ profiling [2]: confirmed inhibition | inhibition in KiNativ profiling [3]: confirmed inhibition | dephosphorylation of Ser910/Ser935 [13]: did not induce significant dephosphorylation | localization of LRRK2 (accumulation into aggregate structures) [15]: significant accumulation | localization of LRRK2 [16]: did not affect the localization | localization of LRRK2 [17]: did not affect the localization | localization of LRRK1 [18]: does not change | dephosphorylation of Ser910/Ser935 [19]: failed to induce dephosphorylation | dephosphorylation of Ser910/Ser935 [20]: failed to induce dephosphorylation | Ser910/Ser935 dephosphorylation of LRRK2 in the kidney [21]: complete Ser910/Ser935 dephosphorylation | dephosphorylation of LRRK2 Ser910 or Ser935 in brain [21]: no dephosphorylation

Structure (SMILES): CCN(CC)CCNC(=O)c1c(C)[nH]c(/C=C2\C(=O)Nc3ccc(F)cc32)c1C [sunitinib]
fold less sensitive to inhibitor [1]: 12 fold
